Measured values published in patent US6906108B2, “Extracts of vetiver oil as repellent and toxicant to ants, ticks, and cockroaches” (Board of Supervisors of Louisiana State University and …, priority 2001, dated 2005).

Key:
Type in all cases: in vivo
[1] = system: German cockroaches (Blattella germanica); test: German cockroach Petri dish filter paper bioassay (repellency and toxicity)
Method: To test the efficacy of nootkatone against cockroaches, German cockroaches (Blattella germanica) were collected at Baton Rouge, La., the same day as the bioassay was begun.
For the bioassay, Petri dishes (10 cm diameter×1 cm) were used. The Petri dishes were prepared by lining one half of the top and one half of the bottom with a half circle of filter paper (125 mm), and lining the other half with a second half circle of filter paper. For the treated Petri dishes, 50 mg nootkatone and 300 mg REPEL® were dissolved in 2.0 ml ethanol. To each Petri dish was added either ethanol only, 30 mg Deet, 1 mg nootkatone, or 10 mg nootkatone. Ten replicate Petri dishes were used for each of the treatments. The ethanol solution was added to the filter paper on the top and bottom and dried for 10 min. One cockroach was added to each Petri dish. The length of the cockroaches varied from 1 to 1.5 cm. The dishes were then observed at 15 min, 30 min, 1 hr, 2 hr, 3 hr, 4 hr, 5 hr, 24 hr, 48 hr, and 120 hr.

[2] = system: ticks (Ixodes scapularis); test: Tick Petri dish bioassay with treated sand (repellency and toxicity); conditions: 2.75 mg/dish
Method: To test the effectiveness of nootkatone against ticks, ticks (Ixodes scapularis) were collected from Idlewild, La. Nootkatone efficiacy was tested relative to a known repellent, N,N-diethyl-m-toluamide (“Deet”). REPEL®, which contains 27.55% Deet, was purchased locally from a retail garden store.
The bioassay was conducted using Petri dishes (5 cm diameter and 1 cm height). To ensure adequate moisture for the ticks, 1 ml of a hot agar solution (1.5% in H2O) was spread evenly on the inside surfaces of the Petri dish, including the top, bottom, and edges. After the agar cooled, sand that was treated as described below was spread evenly on the inside surfaces of the Petri dish. The sand was held in place by the agar.
For the treated sand, either 2 mg nootkatone or 100 mg REPEL® was initially dissolved in 2 ml ethanol, and then 200 μl of the solution was mixed with 2 g sand that had been autoclaved and cooled. The control was autoclaved sand with 200 μl ethanol only added. One half of the surfaces in the Petri dishes were covered with 2 g treated sand, and the other half with 2 g untreated sand. In the nootkatone-treated Petri dishes, the final concentration was 200 μg/dish; while in the Deet treated Petri dishes, the final concentration was 2.75 mg/dish. Control Petri dishes were prepared by covering all sides with untreated sand. One tick was added to each Petri dish, and the top replaced. The number of replicates were as follows: control, 6; nootkatone, 9; and Deet, 8. […] Repellent activity was noted if the tick was found on the untreated side of the Petri dish. The ticks in the control Petri dishes were randomly distributed on the left and right sides.
The above experiment was repeated with ticks (Ix. scapularis) collected from Hammond, La. The number of replicates in this experiment were as follows: controls, 8; nootkatone, 10; and Deet, 8.

[3] = system: cat fleas (Ctenocephalides felis (Bouche)); test: Cat flea Petri dish filter paper bioassay (repellency and mortality); conditions: 2.76 mg per dish
Method: To test the effectiveness of nootkatone against fleas, cat fleas (Ctenocephalides felis (Bouche)) were collected from a flea colony at St. Gabriel, La.
Petri dishes (5 cm diameter and 1 cm height) were prepared by lining one half of the top and the bottom with a half circle of filter paper (55 mm), and lining the other half with a second half circle of filter paper. For the treated Petri dishes, 50 mg nootkatone or 100 mg REPEL® were dissolved in 0.5 ml ethanol. […] Ten replicate Petri dishes were used for each of the treatments. The ethanol solution was added to the filter paper on the top and bottom and dried for 10 min. To place the fleas in the Petri dishes, fleas were temporarily immobilized by placing them at −20° C. for 5 min. The number of fleas in each Petri dish varied: for the 10 control Petri dishes, the average number in each dish was 10.2, with a range of 4 to 23; for 0.2 mg nootkatone, the average number in each dish was 8.5, with a range of 5 to 18; for 1 mg nootkatone, the average number in each dish was 10.6, with a range of 6 to 21; for 2 mg nootkatone, the average number in each dish was 11.1, with a range of 9 to 15 (Fleas could be counted in only 9 Petri dishes; one had too many fleas to count); and for 2.76 mg Deet, the average number in each dish was 6.7, with a range of 5 to 9.
The number of fleas on each side of each Petri dish was counted at 1 hr, 2 hr, 3 hr, 4 hr, 24 hr, 48 hr, 72 hr, and 96 hr.

[4] = 8 replicates, ticks from Hammond

CCN(CC)C(=O)c1cccc(C)c1 [Deet, N,N-diethyl-m-toluamide, reference compound]
Repellent activity against the cockroaches ([1]; 30 mg per dish): no significant repellent activity
Percent Repellency ([1]; 30 mg per dish, 30 min): 50%
Percent Repellency ([1]; 30 mg per dish, 1 hr): 40%
Percent Repellency ([1]; 30 mg per dish, 2 hr): 70%
Percent Repellency ([1]; 30 mg per dish, 3 hr): 50%
Percent Repellency ([1]; 30 mg per dish, 4 hr): 60%
Percent Repellency ([1]; 30 mg per dish, 5 hr): 70%
Percent Repellency ([1]; 30 mg per dish, 24 hr): 38%
Percent Repellency ([1]; 30 mg per dish, 48 hr): 43%
Percent Repellency ([1]; 30 mg per dish, 120 hr): 50%
Number of cockroach deaths compared with the control ([1]; any of the treatments (30 mg Deet; 1 mg or 10 mg nootkatone), up to 120 hr): not significantly different from the control
Petri dishes that lost the repellent activity after 96 hr [2, 4]: one
Ticks dead at 24 hr (number) [2, 4]: one
Ticks dead at 72 hr (number) [2, 4]: one
Ticks dead at 96 hr (number) [2, 4]: four
Petri dishes that had lost the repellent activity after 90 hr ([2]; 8 replicates, ticks from Idlewild): three
Ticks dead at 96 hr (percent) ([2]; ticks from Hammond): 50%
Ticks dead after 90 hr ([2]; ticks from Idlewild): No ticks
Overall activity against fleas [3]: effective as both a repellent and a toxicant
Repellent activity against fleas ([3]; first observation (1 hr)): showed repellent activity
